Read-outs that look alike come from different tables or passages of the source.

Here are results for 2 molecules from patent publication US20230105693A1, “ANTIMICROBIAL COMPOSITIONS” (Firmenich SA, priority 2020, published 2023).

The nature of series [1]: Equivalent alkane carbon number (EACN) in model microemulsion system. The class given is physicochemical. As to conditions: C10E5/water/isopropyl myristate model system, 3% wt perfume ingredient.
The next series is described as follows: physchem. The class given is physicochemical. The method, then:
The partition coefficient (P) is defined as the ratio of the concentrations (C) to the equilibrium of a dissolved and highly diluted substance in a biphasic system consisting of two almost immiscible solvents.
In the case of n-octanol and water:
The partition coefficient P is the quotient of two concentrations, it is generally indicated in its logarithmic form, base 10 (LogP).
The log P values of different perfume ingredients were measured using standard high performance liquid chromatography method, according to the reference (OECD, guideline No. 117, adopted on 13 Apr. 2004, Partition coefficient (n-octanol-water), High Performance Liquid Chromatography (HPLC) Method).

The test system of another series is E. coli ATCC 10536. Description: Bacterial contact time (BCT) test of perfume ingredients in 20% ethanol solution (EN-1276 based). The class given is cell-based, Escherichia coli. As to conditions: 20% EtOH, 45 s. On the procedure:
Bacterial suspensions of E. coli ATCC 10536 were prepared for antimicrobial testing as follows. Stock cultures stored at -80° C. were sub-cultured onto Tryptic Soy Agar (TSA) plate, and incubated at 37° C. for 24 h to obtain single colonies. Single colonies of the primary cultures were streaked onto TSA plates and incubated at 37° C. for 24 h to prepare the secondary cultures. Single colonies of secondary cultures were inoculated into 50 mL of Tryptic Soy broth (TSB), incubated at 37° C. 180 rpm for 18 h. Aliquots (0.5 ml) of the 18 h culture were inoculated into 50 ml of fresh TSB, and incubated at 37° C. 180 rpm for 2- 3 hours. When the OD600 nm value of the broth reached 1-2, cells were harvested by centrifugation at 5,000 rpm for 10 min, and then resuspended in the same fresh broth media to achieve the target level of 1-5 × 10^8 colony forming unit (CFU)/mL. This suspension was used for further antimicrobial tests.
Unless indicated otherwise, log reduction testing according to the present invention is determined in accordance with the following method.
Bacterial contact time (BCT) test based on European standard EN-1276 was used to determine dose dependent bactericidal activity of perfume ingredients in 20% ethanol solutions.
Perfume ingredients of various concentrations (doses) were prepared in 40% ethanol solutions. Eleven replicates of each sample were added into 96-well microtiter plates (120 µl per well) in column 1-11 of one row, with row B as the control sample of the ethanol solution. Then, 120 µl of cell suspension at a concentration of approximately 1-5 × 10^8 CFU/ML (as prepared above) were added to each well of the microtiter plate. A specified contact time (45 s) was allowed for target bacterial strains. At the end of the contact time, serial dilutions were prepared in 96 well plates with growth media: 3 times of 1 in 10 dilutions and followed by 17 times of 1 in 2 dilutions. Each plate was sealed and incubated at 37° C. under agitation (180 rpm). After incubation, turbidity of the wells (OD 600 nm) was recorded by Tecan microplate reader. Turbid cells were regarded as positive growth of viable cells. The total number of viable cells (log CFU/mL) for each sample was calculated. And the log reduction for each test composition at the final concentration (dose) was calculated against the control sample of the 20% ethanol solution.
Table 20 show the bactericidal dose related effect (log reduction) and calculated effect fraction of the Mixture C and compositions against E. coli ATCC 10536. Stock of compositions were prepared in 100% ethanol, then diluted in MilliQ water to obtain 2 × final concentration in 40% ethanol. BCT tests were conducted on samples against E. coli for a contact time of 45 s.

In series [2] the test system is Escherichia coli ATCC 10536. Description: Robotic BCT test of perfume ingredients in model surfactant bases. As to conditions: for log reduction at 0.5 %: Escherichia coli, ATCC10536, 45 s, read-out: Log reduction in Base 1 (Log CFU/mL). The class given is cell-based.
Setting [3] is: model base 1, table by functional group.

Take `Cc1ccc(C(C)C)cc1O` [5-isopropyl-2-methylphenol]: the EACN in series [1] is on record as -43.89. For the same molecule, in “physchem” (n-octanol/water, HPLC method, read-out: Log P), the chromatographic logP was 2.52. Further, the Effect fraction with E. coli ATCC 10536 (dose 0.030% w/v) turned out to be 0.090; in the series on E. coli ATCC 10536 (dose 0.035% w/v) it was 0.250; with E. coli ATCC 10536 (dose 0.040% w/v) it was 0.610; in the series on E. coli ATCC 10536 (dose 0.045% w/v), 0.830; in the series with E. coli ATCC 10536 (dose 0.050% w/v) it was 0.970. Besides, the Log reduction in the series on E. coli ATCC 10536 (dose 0.030% w/v) amounted to 0.660; with E. coli ATCC 10536 (dose 0.035% w/v), 1.812; with E. coli ATCC 10536 (dose 0.040% w/v), 4.379; with E. coli ATCC 10536 (dose 0.045% w/v), 5.960; in the series on E. coli ATCC 10536 (dose 0.050% w/v), 6.960. Moreover, in series [2], the log reduction at 0.5 % is 5.3. Further, the “Log reduction in Base 1 (Log CFU/mL)” value in series [2] (setting [3]) turned out to be 5.3 Log CFU/mL.
Take `Cc1ccc(C(C)C)c(O)c1` [2-isopropyl-5-methylphenol]: in series [1], the EACN was -43.68. In the series “physchem”, the chromatographic logP was determined as 2.57. Moreover, the Effect fraction is 0.120 with E. coli ATCC 10536 (dose 0.025% w/v); 0.300 with E. coli ATCC 10536 (dose 0.030% w/v); 0.470 in the series with E. coli ATCC 10536 (dose 0.035% w/v); 0.690 in the series on E. coli ATCC 10536 (dose 0.040% w/v); 0.890 in the series on E. coli ATCC 10536 (dose 0.045% w/v). Also, the Log reduction in the series with E. coli ATCC 10536 (dose 0.025% w/v) is listed as 0.887; in the series with E. coli ATCC 10536 (dose 0.030% w/v), 2.140; in the series with E. coli ATCC 10536 (dose 0.035% w/v), 3.344; in the series with E. coli ATCC 10536 (dose 0.040% w/v), 4.987; with E. coli ATCC 10536 (dose 0.045% w/v), 6.387. Further, the log reduction at 0.5 % is above 5.5 in series [2] (0.5% perfume ingredient, Base 1: SLES 1.875%, CAPB 0.625%, contact 45 s) and above 5.5 in series [2] (setting [3]).
